According to US20150099800A1, “NOVEL LIPASE INHIBITORS, REPORTER SUBSTRATES AND USES THEREOF” (Northeastern University, priority 2012, published 2015):
Entries after “also recorded” stand apart in the source; their conditions may differ. Read-outs that look alike come from different tables or passages of the source. Each block holds one compound with its values, some of them ahead of it.

Legend:
[1] = test system: Lipoprotein Lipase (Bacterial); assay type: biochemical, Pseudomonas sp.
[2] = target: T1, Pancreatic Lipase (Porcine) (Sus scrofa, UniProt P00591); assay type: biochemical
T1 construct: purchased Sigma L3126
T1 sequence (P00591 1-450): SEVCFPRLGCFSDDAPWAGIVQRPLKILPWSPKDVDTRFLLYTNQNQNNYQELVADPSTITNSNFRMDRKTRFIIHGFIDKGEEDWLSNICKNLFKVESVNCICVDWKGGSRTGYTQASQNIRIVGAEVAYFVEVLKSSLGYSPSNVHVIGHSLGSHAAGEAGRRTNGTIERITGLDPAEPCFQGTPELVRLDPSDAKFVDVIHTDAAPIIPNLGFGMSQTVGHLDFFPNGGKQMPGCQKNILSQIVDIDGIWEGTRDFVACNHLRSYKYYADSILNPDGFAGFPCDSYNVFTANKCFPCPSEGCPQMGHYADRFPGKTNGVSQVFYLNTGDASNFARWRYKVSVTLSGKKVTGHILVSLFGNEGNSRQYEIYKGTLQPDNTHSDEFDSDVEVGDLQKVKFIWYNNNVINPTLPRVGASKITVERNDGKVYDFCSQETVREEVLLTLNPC

hDAGLα [3] = target: T2, hDAGLα (Homo sapiens, UniProt Q9Y4D2)
T2 sequence (Q9Y4D2 1-1042): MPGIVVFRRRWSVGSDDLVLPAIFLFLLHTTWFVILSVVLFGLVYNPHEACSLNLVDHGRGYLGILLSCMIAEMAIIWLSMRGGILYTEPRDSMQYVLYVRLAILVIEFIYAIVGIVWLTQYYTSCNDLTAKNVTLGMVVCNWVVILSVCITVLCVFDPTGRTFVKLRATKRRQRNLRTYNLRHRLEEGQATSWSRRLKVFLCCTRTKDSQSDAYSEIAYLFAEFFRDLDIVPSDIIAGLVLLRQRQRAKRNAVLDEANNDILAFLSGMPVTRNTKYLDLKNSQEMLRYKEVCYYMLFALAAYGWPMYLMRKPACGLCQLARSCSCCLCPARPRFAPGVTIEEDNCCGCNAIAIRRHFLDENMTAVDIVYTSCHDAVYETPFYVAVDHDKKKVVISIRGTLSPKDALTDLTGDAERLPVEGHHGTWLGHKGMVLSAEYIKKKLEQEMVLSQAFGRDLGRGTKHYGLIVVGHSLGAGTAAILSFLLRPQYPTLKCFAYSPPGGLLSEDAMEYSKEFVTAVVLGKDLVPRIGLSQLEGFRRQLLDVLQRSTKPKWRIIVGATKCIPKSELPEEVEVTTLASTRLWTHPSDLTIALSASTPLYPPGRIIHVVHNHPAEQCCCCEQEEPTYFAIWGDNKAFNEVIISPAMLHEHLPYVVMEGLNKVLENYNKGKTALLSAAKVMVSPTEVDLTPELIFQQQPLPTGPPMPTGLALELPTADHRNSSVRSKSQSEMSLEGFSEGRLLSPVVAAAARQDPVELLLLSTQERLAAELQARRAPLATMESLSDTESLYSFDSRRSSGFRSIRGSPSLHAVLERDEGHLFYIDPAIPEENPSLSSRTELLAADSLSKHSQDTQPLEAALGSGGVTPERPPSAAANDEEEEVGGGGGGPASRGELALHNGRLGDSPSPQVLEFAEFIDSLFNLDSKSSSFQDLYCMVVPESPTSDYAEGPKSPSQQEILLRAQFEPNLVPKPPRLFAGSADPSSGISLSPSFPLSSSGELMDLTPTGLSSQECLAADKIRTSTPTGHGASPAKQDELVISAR

mDAGLα = target: T3, mDAGLα (Mus musculus, UniProt Q6WQJ1); test: Radio-TLC assay with [14C]SAG substrate, mDAGLα
T3 sequence (Q6WQJ1 1-1044): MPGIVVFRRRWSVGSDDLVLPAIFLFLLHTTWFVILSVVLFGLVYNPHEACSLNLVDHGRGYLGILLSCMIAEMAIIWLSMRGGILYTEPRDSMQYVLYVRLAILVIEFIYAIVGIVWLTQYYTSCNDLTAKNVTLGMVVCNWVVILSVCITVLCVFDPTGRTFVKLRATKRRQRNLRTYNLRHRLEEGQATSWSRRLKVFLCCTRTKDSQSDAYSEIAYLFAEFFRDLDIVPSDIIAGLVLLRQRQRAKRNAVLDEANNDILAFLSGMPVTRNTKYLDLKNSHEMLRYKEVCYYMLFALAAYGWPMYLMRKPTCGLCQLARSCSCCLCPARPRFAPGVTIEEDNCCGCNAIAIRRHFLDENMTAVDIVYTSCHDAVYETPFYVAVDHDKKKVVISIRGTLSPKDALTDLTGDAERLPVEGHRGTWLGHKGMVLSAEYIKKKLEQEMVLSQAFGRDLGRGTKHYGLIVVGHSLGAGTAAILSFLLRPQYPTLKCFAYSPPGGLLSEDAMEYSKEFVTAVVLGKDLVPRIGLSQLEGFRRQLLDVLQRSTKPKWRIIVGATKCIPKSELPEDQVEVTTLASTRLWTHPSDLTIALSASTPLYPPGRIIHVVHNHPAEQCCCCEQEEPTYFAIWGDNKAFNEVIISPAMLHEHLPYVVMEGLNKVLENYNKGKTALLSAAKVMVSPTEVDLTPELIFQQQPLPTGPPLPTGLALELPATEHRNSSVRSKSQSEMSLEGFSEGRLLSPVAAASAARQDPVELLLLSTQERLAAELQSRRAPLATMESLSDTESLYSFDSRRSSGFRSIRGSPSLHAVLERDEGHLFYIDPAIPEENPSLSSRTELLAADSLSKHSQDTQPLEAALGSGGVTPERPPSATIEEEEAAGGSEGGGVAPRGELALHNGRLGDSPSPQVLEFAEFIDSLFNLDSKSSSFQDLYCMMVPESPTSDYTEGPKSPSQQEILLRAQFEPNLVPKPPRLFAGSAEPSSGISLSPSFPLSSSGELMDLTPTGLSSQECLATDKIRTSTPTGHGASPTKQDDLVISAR

hDAGLα [4] = target: T2, hDAGLα; test: Evaluation of FRET reporter substrates for enzymatic hydrolysis; assay type: biochemical; parameters: V5; His; expressed in transfected cells; host or cells: HEK293T, transient; crude cell lysate or membrane preparation
From the text: Reporter compounds as substrates for hDAGLα activity with HEK293T cell lysates in the presence of 10% DMSO are shown. A) Pyrenyl analogs (17)-(19), (21), and (22) (EX 320 nm, EM 400 nm). B) NBD analog (20) (EX 485 nm, EM 535 nm).
A convenient in vitro fluorometric esterase assay utilizing the BioTek Instruments Synergy™ HT Multi-Mode Microplate 96-well reader was developed that measured nanomolar concentrations of fluorescent reaction product.

MAGL [5] = target: T4, MAGL (Homo sapiens, UniProt Q99685); test: hMAGL coumarin substrate fluorescence assay; assay type: biochemical; parameters: The N-terminal his-tagged full length human monoacylglycerol lipase used; His (N); made in house; host or cells: E. coli
T4 sequence (Q99685 1-303): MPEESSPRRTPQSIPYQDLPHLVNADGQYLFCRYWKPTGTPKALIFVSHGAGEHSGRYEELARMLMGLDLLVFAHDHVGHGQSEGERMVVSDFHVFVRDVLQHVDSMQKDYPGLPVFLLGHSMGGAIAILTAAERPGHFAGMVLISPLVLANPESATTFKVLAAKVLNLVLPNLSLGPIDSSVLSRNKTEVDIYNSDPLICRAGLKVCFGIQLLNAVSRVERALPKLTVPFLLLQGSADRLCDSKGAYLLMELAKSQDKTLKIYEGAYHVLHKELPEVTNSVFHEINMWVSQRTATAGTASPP

rFAAH = target: T5, rFAAH (Rattus norvegicus, UniProt P97612); test: rFAAH coumarin substrate fluorescence assay; assay type: biochemical
T5 construct: His (N); made in house; host or cells: E. coli (cell line provided by the Cravatt group)
T5 sequence (P97612 30-579 limits assumed): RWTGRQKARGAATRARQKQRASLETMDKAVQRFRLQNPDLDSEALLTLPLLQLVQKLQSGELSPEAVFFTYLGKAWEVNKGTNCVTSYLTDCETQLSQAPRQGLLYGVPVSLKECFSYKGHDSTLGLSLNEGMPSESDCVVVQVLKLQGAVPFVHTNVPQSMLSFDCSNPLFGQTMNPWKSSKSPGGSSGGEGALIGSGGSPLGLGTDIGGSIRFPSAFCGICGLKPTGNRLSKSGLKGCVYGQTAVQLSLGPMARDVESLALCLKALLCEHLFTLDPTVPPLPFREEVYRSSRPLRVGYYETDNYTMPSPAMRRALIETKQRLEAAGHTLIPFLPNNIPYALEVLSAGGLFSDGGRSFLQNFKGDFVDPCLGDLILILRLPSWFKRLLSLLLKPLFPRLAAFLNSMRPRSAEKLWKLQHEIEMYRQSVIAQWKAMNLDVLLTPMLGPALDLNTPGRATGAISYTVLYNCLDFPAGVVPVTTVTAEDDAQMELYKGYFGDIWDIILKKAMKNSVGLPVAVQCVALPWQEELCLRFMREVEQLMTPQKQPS

hDAGLα [6] = target: T2, hDAGLα; remark: listed apart in the source
DAGL = details: cited from earlier work
cannabinoid receptors = details: literature; cited from earlier work
MAGL [7] = target: T4, MAGL; details: cited from earlier work
FAAH = details: cited from earlier work

Compound: O=C(Oc1ccc([N+](=O)[O-])cc1)N1CCN(Cc2cccc(Oc3ccccc3)c2)CC1 [JZL195]
Lipoprotein Lipase (Bacterial) inhibition at 10 μM (%) [1]: <0%
Pancreatic Lipase (Porcine) inhibition at 10 μM (%) [2]: 43%
hDAGLα inhibition at 10 μM detergent free (%), FRET (hDAGLα [3]): 64, 55° %
hDAGLα inhibition at 10 μM detergent free (%), FRET, marker ° (hDAGLα [3]): 64, 55° %
mDAGLα inhibition at 10000 nM (%) (mDAGLα): 10%

Compound: CCCCCCCCCCC[C@@H](C[C@@H]1OC(=O)[C@H]1CCCCCC)OC(=O)[C@@H](NC=O)[C@H](C)CC [Compound 5]
rFAAH inhibition at 10 μM (%) (rFAAH; 10 μM): 3%
Lipoprotein Lipase (Bacterial) inhibition at 10 μM (%) ([1]; 10 μM): 61%
Pancreatic Lipase (Porcine) inhibition at 10 μM (%) ([2]; 10 μM): 98%
hDAGLα inhibition at 10 μM (0.05% Triton X-100) (%), FRET (hDAGLα [3]; 10 μM): 99%
hDAGLα inhibition at 10 μM detergent free (%), FRET (hDAGLα [3]; 10 μM, detergent free): 92%
mDAGLα inhibition at 10 nM (%) (mDAGLα): 60%
mDAGLα inhibition at 100 nM (%) (mDAGLα): 61%
mDAGLα inhibition at 1000 nM (%) (mDAGLα): 88%
mDAGLα inhibition at 10000 nM (%) (mDAGLα): 100%
hMAGL inhibition at 10 μM (%) (MAGL [5]): 1%

Compound: O=S(=O)(F)Cc1ccccc1 [PMSF, phenylmethylsulfonylfluoride]
Lipoprotein Lipase (Bacterial) inhibition at 10 μM (%) [1]: <0%
inhibition of hDAGLα in radio-TLC assays (hDAGLα [6]): poor inhibitors
effect on DAGL activity reported in the literature (DAGL): poor inhibitors; also recorded: not affected
binding to the cannabinoid receptors, previous reports (cannabinoid receptors): did not bind
inhibition of MAGL activity reported in the literature (MAGL [7]): poor inhibitors
inhibition of FAAH activity reported in the literature (FAAH): poor inhibitors

Compound: CCCCCCCCCCCCCCCCS(=O)(=O)F [n-C16H33SO2F, Palmitylsulfonyl fluoride]
rFAAH inhibition at 10 μM (%) (rFAAH): 100^E %
IC50 (rFAAH; read-out: rFAAH apparent IC50 (8 pt, 95% confidence)): 6.3 nM
IC50 (FAAH; read-out: IC50 FAAH with radiolabeled N-arachidonoylethanolamine (anandamide) substrate): 7 nM

Compound: CCCCCCCCCCC[C@@H](C[C@@H]1OC(=O)[C@H]1CCCCCC)OC(=O)[C@@H](NC=O)[C@@H](C)CC [Compound 4]
rFAAH inhibition at 10 μM (%) (rFAAH; 10 μM): 7%
Lipoprotein Lipase (Bacterial) inhibition at 10 μM (%) ([1]; 10 μM): 84%
Pancreatic Lipase (Porcine) inhibition at 10 μM (%) ([2]; 10 μM): 99%
hDAGLα inhibition at 10 μM (0.05% Triton X-100) (%), FRET (hDAGLα [3]; 10 μM): 99%
hDAGLα inhibition at 10 μM detergent free (%), FRET (hDAGLα [3]; 10 μM, detergent free): 92%
mDAGLα inhibition at 10 nM (%) (mDAGLα): 69%
mDAGLα inhibition at 100 nM (%) (mDAGLα): 80%
mDAGLα inhibition at 1000 nM (%) (mDAGLα): 96%
mDAGLα inhibition at 10000 nM (%) (mDAGLα): 96%
hMAGL inhibition at 10 μM (%) (MAGL [5]): 16%

Compound: CCCCCCCCCCCCCC1CC(=O)O1 (racemic) [Compound 9, 4-Tridecyloxetan-2-one]
Lipoprotein Lipase (Bacterial) inhibition at 10 μM (%) ([1]; 10 μM): <0%
inhibition at 10 µM ([2]; read-out: Pancreatic Lipase (Porcine) inhibition at 10 μM (%)): 36%

Results, then the compound that gave them:

quality as substrate for enzymatic hydrolysis (hDAGLα [4]): poor substrates
Compound: 1-(5-Dimethyloxazolinyloxyl)stearoyl-2-pyrenebutanoyl-3-methyl-sn-glycerol [Compound 21]

Lipoprotein Lipase (Bacterial) inhibition at 10 μM (%) ([1]; 10 μM): 67%
inhibition at 10 µM (MAGL [5]; read-out: hMAGL inhibition at 10 μM (%)): 56%
Compound: CCCCCCC[C@@H]1OC(=O)[C@H]1CCCCCC (relative stereo) [Compound 10, trans-3-hexyl-4-heptyloxetan-2-one]

Lipoprotein Lipase (Bacterial) inhibition at 10 μM (%) ([1]; 10 μM): 33%
Compound: CCCCCCC[C@H]1OC(=O)[C@H]1CCCCCC (relative stereo) [Compound 11, cis-3-Hexyl-4-heptyloxetan-2-one]

quality as substrate for enzymatic hydrolysis (hDAGLα [4]): poor substrates
Compound: 1-(16-Dimethyloxazolinyloxyl)stearoyl-2-pyrenebutanoyl-3-methyl-sn-glycerol [Compound 22]
